Reference: patent US20080305100A1, “Activated Protein C Inhibits Undesirable Effects of Plasminogen Activator in the Brain” (priority 2004, published 2008)

Key:
AIF = assay: Western blot of AIF in nuclear extracts of NMDA/tPA treated neurons; type: cell-based, mouse; conditions: for AIF nuclear translocation in the presence of tPA (NMDA/tPA injury): effect of APC or caspase inhibitor
Description: (§1) Primary neuronal cultures were prepared from fetal C57BU6J mice as we have previously described^23. Cultures were maintained in serum-free NEUROBASAL medium plus B27 supplement (Gibco BRL, Rockville, Md.) in a humidified 5% CO2 incubator at 37° C. for 14 days before 3 hr to 24 hr treatment with tPA (20 μg/ml) alone, NMDA (25 μM)/5 μM glycine, or tPA plus NMDA. Ac-DEVD-CHO (50 μM), z-IETD-fmk (20 μM), or z-LEHD-fmk (5 μM) was applied 3 hr prior to tPA/NMDA treatment. Mouse recombinant APC (20 nM) was added 30 min before tPA/NMDA treatment.
(§2) Whole cellular extracts, nuclear proteins, or cell membrane fractions were prepared as we have previously described^23. The relative abundance of each protein was determined by scanning densitometry using β-actin as an internal control. Data from multiple Western blots (n=3-5) were averaged for statistical analysis.

p53, Bax, Bcl-2 = assay: Western blot of p53, Bcl-2 and Bax in NMDA-treated neurons; type: cell-based, mouse; conditions: tPA plus NMDA vs NMDA
Description: as §1, §2

caspase-3 [1] = assay: Caspase-3 activity in BEC lysate; type: cell-based, human; conditions: for increase in caspase-3 activity compared to hypoxia alone: tPA plus hypoxia; for inhibition in caspase-3 activation in hypoxic BEC: absence of tPA; for inhibition in caspase-3 activation in hypoxic BEC / inhibition of caspase-3 activation in hypoxic BEC: z-IETD-fmk 10 μM, z-LEHD-fmk 15 μM applied 2 hr prior; for inhibition of caspase-3 activation in hypoxic BEC: presence of tPA
Description: (§3) Primary human BEC were isolated from rapid autopsies from neurologically normal young individuals after trauma and cultured as we have previously described^20. Cells were maintained in serum-free Dulbeco's Modified Eagle Medium and exposed for 1 hr to 16 hr to tPA (20 μg/ml) under normoxic conditions (20% oxygen, 5 mM glucose), hypoxia (<2% oxygen, no glucose), or to tPA plus hypoxia. Hypoxia was induced using an anaerobic chamber (Form a Scientific, Holbrook, N.Y.)^20. The levels of O2 were monitored by O2 Fyrite (Form a Scientific). z-IETD-fmk (10 μM) or z-LEHD-fmk (15 μM) was applied 2 hr prior to tPA/hypoxia treatment. Human APC (10 nM to 600 nM) was added at the time of tPA/hypoxia treatment. Caspase-3, -8 or -9 activity was determined in the presence of 400 nM APC.
(§4) BEC or cortical neuron lysate was incubated at 37° C. with caspase-3 (DEVD-pNA), caspase-8 (IETD-pNA) (ApoAlert caspase assay kit; Clontech, Palo Alto, Calif.), or caspase-9 (Ac-LEHD-pNA; Chemicon; Temecula, Calif.) substrate. Substrate hydrolysis was determined as absorbance change at 405 nm in a microplate reader^23. Enzymatic activity was expressed in arbitrary units per mg of protein.

caspase-3 [2] = assay: Caspase-3 activity in cortical neuron lysate; type: cell-based, mouse
Description: as §1, §4

mouse stroke model = assay: In vivo stroke model (45 min MCA occlusion/24 hr reperfusion); conditions: tPA 10 mg/kg iv
Description: Protocols were approved by the Animal Care Committee at the University of Rochester using National Institutes of Health guidelines. Vehicle, tPA (10 mg/kg, 10% bolus/90% infusion), or tPA plus mouse recombinant APC (0.02 mg/kg to 1 mg/kg, 50% bolus/50% infusion) were administered via the femoral vein using separate intravenous lines and our previously described mouse stroke model^19,20 modified to 45 min MCA occlusion/24 hr reperfusion. tPA was infused during the last 10 min of MCA occlusion and for 20 min into reperfusion. APC was infused either simultaneously with tPA, after tPA infusion, or before tPA infusion. The dose of tPA used here has been frequently used in rodents and is considered to be equivalent to the therapeutic dose in humans^12,13,44,50. CBF was monitored by laser Doppler flowmetry (Transonic Systems)^19. Arterial blood gasses were measured^19. Neurological examinations were performed at 24 hr and scored: no neurological deficit (O), failure to extend left forepaw fully (1), turning to left (2), circling to left (3), unable to walk spontaneously (4), or stroke-related death (5). Neuropathological analysis was performed at 24 hr. Unfixed 1-mm coronal brain slices at the level of optic chiasm were incubated in 2% triphenyltetrazolium chloride in phosphate buffer (pH 7.4). Brain injury, infarct, and edema volumes were determined as previously described^19,20. Fibrin deposition was quantified by Western blotting with anti-fibrin II antibody (1:500, NYB-T2G1; Accurate Chemical Scientific Corp.)^19,20,30 and leukocytes were stained with CD11b antibody (1:250, DAKO Corp.)^19,20. Hemoglobin was determined by a spectrophotometric assay using Drabkin's reagent (Sigma) as we have previously described^19.

human BEC [3] = assay: tPA/hypoxia in human BEC: cell injury by LDH release; type: cell-based; conditions: for LDH release into the medium from ischemic BEC: tPA 20 μg/ml plus hypoxia/aglycemia
Description: as §3
(§5) Cell injury in BEC was detected by the release of LDH (LDH assay, Sigma). The Hoechst dye (Hoechst 33,342, Sigma) and in situ terminal deoxynucleotidyl transferase-mediated digoxigenin-dUTP nick-end labeling (TUNEL) (Phoenix Flow Systems, San Diego, Calif.) assays were performed on acetone-fixed BEC or paraformaldexyde-fixed neurons. Images were visualized using a Nikon TE2000-U microscope.

MMP-9 = assay: MMP gelatin zymography of BEC conditioned medium; type: cell-based, human; conditions: tPA 20 μg/ml, hypoxic BEC, 4 hr
Description: The conditioned medium from BEC exposed to tPA (20 μg/ml) or hypoxia for 4 hr, in the absence or presence of human APC (50 nM to 1,000 nM), was analyzed by gelatin zymography as previously described^11. […] MMP-9 activity was quantified as fold increase compared with normoxic controls.

caspase-9 [4] = assay: Caspase-9 activity in BEC lysate; type: cell-based, human; conditions: tPA 20 μg/ml plus hypoxia
Description: as §3, §4

caspase-8 [5] = assay: Caspase-8 activity in BEC lysate; type: cell-based, human; conditions: tPA plus hypoxia, at 1 hr; remained elevated over 16 hr vs hypoxia alone
Description: as §3, §4

caspase-9 [6] = assay: Caspase-9 activity in cortical neuron lysate; type: cell-based, mouse
Description: as §1, §4

mouse cortical neurons = assay: tPA/NMDA-induced apoptosis in neurons; type: cell-based
Description: as §1, §5

[7] = target: T1, NR1 or the NR2A subunit of the NMDA receptor (Mus musculus, UniProt P35436+P35438); assay: Western blot of NR1 and NR2A subunits in membrane fractions after tPA; type: cell-based; conditions: 24 h after treatment with tPA
T1 construct: Western blot analysis of NR1 and NR2A subunits in membrane fractions 24 h after treatment with tPA; endogenous in cells; host or cells: primary cortical neurons from fetal C57BL/6J mice
Description: as §1, §2

caspase-8 [8] = assay: Caspase-8 activity in cortical neuron lysate; type: cell-based, mouse; conditions: for tPA-induced increase in caspase-8 activation: tPA/NMDA treated neurons, APC 20 nM, z-IETD-fmk 20 μM, z-LEHD-fmk 5 μM
Description: as §1, §4

human BEC [9] = assay: tPA/hypoxia in human BEC: apoptosis (TUNEL); type: cell-based
Description: as §3, §5

With Ac-DEVD-CHO the “AIF nuclear translocation in the presence of tPA (NMDA/tPA injury)” value (“AIF nuclear translocation … (NMDA/tPA injury)” for short) (AIF) was “blocked”.
With “tPA: Human recombinant tPA (alteplase, Genentech); in some in vitro studies human recombinant tPA from Sigma” the “NMDA-mediated increases in p53 and Bax expression, decrease in Bcl-2 expression” value (p53, Bax, Bcl-2) was “did not affect”, the “increase in caspase-3 activity compared to hypoxia alone” value (caspase-3 [1]; at 4 hr) was 2.8 fold and the “increase in caspase-3 activity compared to hypoxia alone” value (caspase-3 [1]; within 16 hr) was over 3.0 fold. The “caspase-3 activation relative to NMDA alone” value (caspase-3 [2]; tPA 20 μg/ml plus NMDA 25 μM) was “increased”, the “activation of caspase-3” value (caspase-3 [2]; tPA alone, no NMDA) was “did not affect” and the “improvement of post-ischemic cerebral blood flow (CBF) vs vehicle” value (mouse stroke model) was 35%. For the same substance, the “increase in the level of hemoglobin in the ischemic hemisphere” value (mouse stroke model) was “greater than 3.0 fold”, the “ischemic brain fibrin deposition” value (mouse stroke model) was “background level” and the “increase of volume of edema compared to controls” value (mouse stroke model; 24 hr reperfusion) was 155%. For the same substance, the “increase of volume of infarction compared to controls” value (mouse stroke model; 24 hr reperfusion) was 75%, the “volume of cerebral injury compared to controls” value (mouse stroke model; 24 hr reperfusion) was “almost doubled” and the motor neurological score (mouse stroke model; 24 hr, controls 2.3, scale 0-5) was 3.5. For the same substance, the “increase of brain accumulation of leukocytes” value (mouse stroke model; CD11b-positive leukocytes) was “about 65%”, the “mice with substantial hemorrhage” value (mouse stroke model; MCA stroke model) was 6/6 and the “LDH release into the medium from ischemic BEC” value (human BEC [3]; 2 hr, background values in the absence of tPA) was 50%. The “LDH release into the medium from ischemic BEC” value (human BEC [3]; 4 hr, 57% in the absence of tPA) was 95%, the “LDH release from normoxic BEC” value (human BEC [3]; tPA alone, normoxia) was “did not affect” and the “potentiation of hypoxia-induced MMP-9 activation” value (MMP-9) was “about 2.0 fold”. For the same substance, the “increase of nuclear translocation of AIF in the presence of NMDA” value (AIF; tPA plus NMDA vs NMDA) was 50%, the “caspase-9 activity in hypoxic BEC relative to hypoxia alone” value (caspase-9 [4]) was “did not produce a significant increase” and the “activation of caspase-8 in ischemic BEC” value (caspase-8 [5]) was “early and sharp increase”. For the same substance, the “caspase-9 activation, tPA/NMDA compared to NMDA alone” value (caspase-9 [6]; tPA 20 μg/ml plus NMDA 25 μM) was “did not alter”, the “activation of caspase-9” value (caspase-9 [6]; tPA alone, no NMDA) was “did not affect” and the “number of apoptotic neurons” value (mouse cortical neurons; tPA 20 μg/ml, 24 hr after exposure to NMDA, vs NMDA alone) was “doubles”. For the same substance, the “effect on neuronal cells” value (mouse cortical neurons; tPA alone, no NMDA) was “did not affect”, the “proteolytic effect on the NMDA receptor (NR1, NR2A subunit)” value [7] was “failed to cleave” and the “caspase-8 in neurons, tPA/NMDA compared to NMDA alone” value (caspase-8 [8]; tPA 20 μg/ml plus NMDA 25 μM) was “robust activation”. The “activation of caspase-8” value (caspase-8 [8]; tPA alone, no NMDA) was “did not affect” and the “number of TUNEL-positive hypoxic BEC” value (human BEC [9]; tPA plus hypoxia, 4 hr, 60% for hypoxia alone) was 100%.
z-IETD-fmk was tested, and the “inhibition in caspase-3 activation in hypoxic BEC” value (caspase-3 [1]) was “less than 15%”, the “inhibition of caspase-3 activation in hypoxic BEC” value (caspase-3 [1]) was “greater than 95%” and the “AIF nuclear translocation … (NMDA/tPA injury)” value (AIF) was “blocked”. The “tPA-induced apoptosis in NMDA-treated neurons” value (mouse cortical neurons; discussion summary) was “abolished”, the “tPA-induced increase in caspase-8 activation” value (caspase-8 [8]) was “abolished” and the “tPA-induced apoptosis in ischemic BEC” value (human BEC [9]; discussion summary) was “abolished”.
For z-LEHD-fmk, the “inhibition in caspase-3 activation in hypoxic BEC” value (caspase-3 [1]) was “greater than 85%”, the “inhibition of caspase-3 activation in hypoxic BEC” value (caspase-3 [1]) was “only slightly inhibited” and the “reduction of caspase-3 activation in cells treated with NMDA alone” value (caspase-3 [2]; NMDA alone, no tPA, z-LEHD-fmk 5 μM) was “greater than 80%”. The “AIF nuclear translocation … (NMDA/tPA injury)” value (AIF) was “much less effective” and the “tPA-induced increase in caspase-8 activation” value (caspase-8 [8]) was “without effect”.
